Test results as given in US8177962B2, “Metal corrosion inhibitor and hydrogen chloride formation inhibitor in a crude oil atmospheric distillation unit” (Kurita Water Industries, Ltd., priority 2002, dated 2012).

How the values were obtained:
[1] = thermal decomposition at 760° C., GC/MS, FIG. 3
Description: Choline chloride was subjected to thermal decomposition GC/MS analysis. 5989A manufactured by Hewlett Packard was used as the GC/MS analyzer, and DB624 manufactured by J&W (0.32 mm×30 m, membrane thickness of 1.8 μm) was used as the column. The temperature for thermal decomposition of choline chloride was 760° C.

[2] = Base dissociation constant (Kb) calculated from pH meter measurement; type: physicochemical; conditions: for Kb value (25° C.): Table 1; for Kb (25° C.) / Kb (170° C.): Table 6

C[N+](C)(C)CCO.[Cl-] [Choline hydrochloride (choline chloride), choline chloride]
thermal decomposition products [1]: produces methyl chloride, trimethylamine and N,N-dimethylaminoethanol by thermal decomposition, but does not produce hydrogen chloride

C[N+](C)(C)CCO.[OH-] [Choline, (β-hydroxyethyl)trimethylammonium hydroxide]
Kb value (25° C.) [2]: 3.14 × 10^−3
Kb (25° C.) [2]: 3.14 × 10^−3
Kb (170° C.) [2]: 8.40 × 10^−3

NC1CCCCC1 [Cyclohexylamine]
Kb value (25° C.) [2]: 3.39 × 10^−4

NCCO [Monoethanolamine]
Kb value (25° C.) [2]: 3.15 × 10^−5
Kb (25° C.) [2]: 2.60 × 10^−5
Kb (170° C.) [2]: 8.42 × 10^−6

C1COCCN1 [Morpholine]
Kb value (25° C.) [2]: 2.09 × 10^−6

Dimethylethanolamine
Kb (25° C.) [2]: 2.21 × 10^−5
Kb (170° C.) [2]: 3.38 × 10^−5
